Source: article PMC5344293, “A phase 1 dose-escalation and expansion study of binimetinib (MEK162), a potent and selective oral MEK1/2 inhibitor” (British Journal of Cancer, 2017)

Assay: Phase 1 safety: adverse events
Type: in vivo, human
Description: All patients underwent a complete medical history and physical examination, assessment of ECOG performance status and vital signs, and laboratory analysis of haematology, coagulation, clinical chemistry, and urine. Three serial resting and supine 12-lead electrocardiograms were conducted over 5–10 min and cardiac ejection fraction was assessed by echocardiogram or MUGA. In addition, a complete ophthalmologic examination (including visual acuity; fundoscopy and tonometry; optical coherence tomography; and slit-lamp, lens, vitreous, and fluorescence dye examinations) was performed on each patient. These assessments were repeated throughout study participation and/or as clinically indicated. Adverse events were reviewed on an ongoing basis.
Adverse events and serious AEs (SAEs) were coded by preferred term (PT) and system organ class using the Medical Dictionary for Regulatory Activities version 12.0. The severity of AEs was assessed by investigators using the National Cancer Institute Common Terminology Criteria for Adverse Events version 3.0. Two AEs of special interest were captured under the composite terms of ‘combined rash' and ‘combined ocular events.' The ‘combined rash' term included the PTs of dermatitis acneiform, acne, skin exfoliation, and any term containing ‘rash'. The ‘combined ocular events' term included the PTs of retinal deposits, retinopathy, papilloedema, chorioretinopathy, macular oedema, retinal detachment, and retinal disorder.
All patients who received ⩾1 dose of binimetinib were included in the safety analysis. Patients in the safety analysis who had ⩾1 measurable lesion at baseline and at least 1 post-baseline disease assessment were evaluable for efficacy. Kaplan–Meier estimates of progression-free survival (PFS) and overall survival (OS) were performed for patients in the expansion phase ([Kaplan and Meier, 1958]) using SAS Version 9.2 (SAS Institute Inc., Cary, NC, USA).

[1] = AEs regardless of causality, N=93

## Cn1cnc2c(F)c(Nc3ccc(Br)cc3F)c(C(=O)NOCCO)cc21 [binimetinib]
30 mg BID (n=4), Gr 1/2
  Abdominal pain: 1 (25) n (%)
  Anaemia: 1 (25) n (%)
  Anorexia: 1 (25) n (%)
  Combined ocular events: 0 (0) n (%)
  Combined rash: 4 (100) n (%)
  Constipation: 2 (50) n (%)
  Diarrhoea: 4 (100) n (%)
  Dizziness: 0 (0) n (%)
  Dyspnoea: 2 (50) n (%)
  Fatigue: 2 (50) n (%)
  Nausea: 3 (75) n (%)
  Peripheral oedema: 0 (0) n (%)
  Pyrexia: 2 (50) n (%)
  Vomiting: 3 (75) n (%)
30 mg BID (n=4), Gr 3/4
  Abdominal pain: 0 (0) n (%)
  Anaemia: 0 (0) n (%)
  Anorexia: 0 (0) n (%)
  Combined ocular events: 0 (0) n (%)
  Combined rash: 0 (0) n (%)
  Constipation: 0 (0) n (%)
  Diarrhoea: 0 (0) n (%)
  Dizziness: 0 (0) n (%)
  Dyspnoea: 0 (0) n (%)
  Fatigue: 0 (0) n (%)
  Nausea: 0 (0) n (%)
  Peripheral oedema: 0 (0) n (%)
  Pyrexia: 0 (0) n (%)
  Vomiting: 0 (0) n (%)
30 mg BID dose group
  Incidence of ocular events: 0%
  Patients reporting SAEs: 50%
45 mg BID (n=44), Gr 1/2
  Abdominal pain: 7 (16) n (%)
  Anaemia: 5 (11) n (%)
  Anorexia: 8 (18) n (%)
  Combined ocular events: 5 (11) n (%)
  Combined rash: 33 (75) n (%)
  Constipation: 6 (14) n (%)
  Diarrhoea: 17 (39) n (%)
  Dizziness: 5 (11) n (%)
  Dyspnoea: 5 (11) n (%)
  Fatigue: 18 (41) n (%)
  Nausea: 27 (61) n (%)
  Peripheral oedema: 20 (45) n (%)
  Pyrexia: 7 (16) n (%)
  Vomiting: 23 (52) n (%)
45 mg BID (n=44), Gr 3/4
  Abdominal pain: 1 (2) n (%)
  Anaemia: 3 (7) n (%)
  Anorexia: 0 (0) n (%)
  Combined ocular events: 0 (0) n (%)
  Combined rash: 1 (2) n (%)
  Constipation: 0 (0) n (%)
  Diarrhoea: 0 (0) n (%)
  Dizziness: 0 (0) n (%)
  Dyspnoea: 2 (5) n (%)
  Fatigue: 2 (5) n (%)
  Nausea: 0 (0) n (%)
  Peripheral oedema: 0 (0) n (%)
  Pyrexia: 0 (0) n (%)
  Vomiting: 0 (0) n (%)
45 mg BID dose group
  AEs resulting in treatment discontinuation, patients: 16%
  AEs that resulted in dose reduction, patients: 16%
  Incidence of combined rash: 77%
  Incidence of diarrhoea: 39%
  Incidence of nausea: 61%
  Incidence of ocular events: 11%
  Incidence of peripheral oedema: 45%
  Incidence of vomiting: 52%
  Median time to onset of combined rash: 8 days
  Patients reporting SAEs: 20%
60 mg BID (n=41), Gr 1/2
  Abdominal pain: 7 (17) n (%)
  Anaemia: 5 (12) n (%)
  Anorexia: 8 (20) n (%)
  Combined ocular events: 11 (27) n (%)
  Combined rash: 35 (85) n (%)
  Constipation: 8 (20) n (%)
  Diarrhoea: 25 (61) n (%)
  Dizziness: 9 (22) n (%)
  Dyspnoea: 6 (15) n (%)
  Fatigue: 16 (39) n (%)
  Nausea: 21 (51) n (%)
  Peripheral oedema: 21 (51) n (%)
  Pyrexia: 7 (17) n (%)
  Vomiting: 20 (49) n (%)
60 mg BID (n=41), Gr 3/4
  Abdominal pain: 3 (7) n (%)
  Anaemia: 10 (24) n (%)
  Anorexia: 0 (0) n (%)
  Combined ocular events: 0 (0) n (%)
  Combined rash: 1 (2) n (%)
  Constipation: 2 (5) n (%)
  Diarrhoea: 0 (0) n (%)
  Dizziness: 0 (0) n (%)
  Dyspnoea: 1 (2) n (%)
  Fatigue: 1 (2) n (%)
  Nausea: 0 (0) n (%)
  Peripheral oedema: 0 (0) n (%)
  Pyrexia: 1 (2) n (%)
  Vomiting: 0 (0) n (%)
60 mg BID dose group
  AEs resulting in treatment discontinuation, patients: 15%
  AEs that resulted in dose reduction, patients: 49%
  Incidence of combined rash: 88%
  Incidence of diarrhoea: 61%
  Incidence of nausea: 51%
  Incidence of ocular events: 27%
  Incidence of peripheral oedema: 51%
  Incidence of vomiting: 49%
  Median time to onset of combined rash: 10 days
  Patients reporting SAEs: 41%
80 mg BID (n=4), Gr 1/2
  Abdominal pain: 1 (25) n (%)
  Anaemia: 0 (0) n (%)
  Anorexia: 1 (25) n (%)
  Combined ocular events: 1 (25) n (%)
  Combined rash: 0 (0) n (%)
  Constipation: 0 (0) n (%)
  Diarrhoea: 1 (25) n (%)
  Dizziness: 0 (0) n (%)
  Dyspnoea: 1 (25) n (%)
  Fatigue: 1 (25) n (%)
  Nausea: 1 (25) n (%)
  Peripheral oedema: 2 (50) n (%)
  Pyrexia: 0 (0) n (%)
  Vomiting: 2 (50) n (%)
80 mg BID (n=4), Gr 3/4
  Abdominal pain: 0 (0) n (%)
  Anaemia: 0 (0) n (%)
  Anorexia: 0 (0) n (%)
  Combined ocular events: 1 (25) n (%)
  Combined rash: 1 (25) n (%)
  Constipation: 0 (0) n (%)
  Diarrhoea: 0 (0) n (%)
  Dizziness: 0 (0) n (%)
  Dyspnoea: 0 (0) n (%)
  Fatigue: 0 (0) n (%)
  Nausea: 0 (0) n (%)
  Peripheral oedema: 0 (0) n (%)
  Pyrexia: 0 (0) n (%)
  Vomiting: 0 (0) n (%)
80 mg BID dose group
  AEs resulting in treatment discontinuation, patients: 25%
  AEs that resulted in dose reduction, patients: 75%
  Incidence of ocular events: 50%
  Incidence of peripheral oedema: 50%
18 patients with ocular events, range, 2–168 days
  Median time to onset of ocular events: 17 days
[1]
  Patients who experienced grade 2 events: 41%
  Patients who experienced grade 3 events: 49%
N=93
  Grade 3 abdominal pain: 4%
  Grade 3 anaemia: 11%
  Grade 3 dehydration: 4%
  Grade 4 AEs, patients: 6%
  Grade 4 anaemia: 3%
  Grade 5 events: no grade 5 events
Total (N=93), all grades
  Abdominal pain: 20 (22) n (%)
  Anaemia: 24 (26) n (%)
  Anorexia: 18 (19) n (%)
  Combined ocular events: 18 (19) n (%)
  Combined rash: 75 (81) n (%)
  Constipation: 18 (19) n (%)
  Diarrhoea: 47 (51) n (%)
  Dizziness: 14 (15) n (%)
  Dyspnoea: 17 (18) n (%)
  Fatigue: 40 (43) n (%)
  Nausea: 52 (56) n (%)
  Peripheral oedema: 43 (46) n (%)
  Pyrexia: 17 (18) n (%)
  Vomiting: 48 (52) n (%)
All dose levels, all grades
  Diarrhoea, patients: 51%
  Fatigue, patients: 43%
  Nausea, patients: 56%
  Ocular events (combined), patients: 19%
  Peripheral oedema, patients: 46%
  Rash (combined rash and related skin disorders), patients: 81%
  Vomiting, patients: 52%
All patients
  AEs of increased blood CK, patients: 13%
  AEs of increased blood CK-MB, patients: 1%
  Combined rash grade 1, patients: 44%
  Combined rash grade 2, patients: 33%
  Discontinuation due to combined rash: 2%
  Discontinuation due to fatigue: 3%
  Discontinuation due to nausea: 3%
  Discontinuation due to small intestinal obstruction: 2%
  Dose modification for AEs of increased blood CK, patients: 4%
  Dose reduction due to chorioretinopathy: 9%
  Dose reduction due to combined rash: 3%
  Dose reduction due to diarrhoea: 2%
  Dose reduction due to fatigue: 2%
  Dose reduction due to increased CK: 2%
  Dose reduction due to macular oedema: 2%
  Dose reduction due to myodesopsia: 2%
  Dose reduction due to photopsia: 3%
  Dose reduction due to retinal detachment: 3%
  Dose reduction due to retinopathy: 2%
  Dose reduction due to visual impairment: 2%
  Dose reduction due to vomiting: 2%
  Grade 3 ocular event of chorioretinopathy, patients: 1%
  Maximum reported SAE severity grade 2, patients: 5%
  Maximum reported SAE severity grade 3, patients: 22%
  Maximum reported SAE severity grade 4, patients: 3%
  Maximum reported severity of nausea, vomiting, or diarrhoea: either grade 1 or grade 2
  Ocular events grade 1, patients: 5%
  Ocular events grade 2, patients: 13%
  Peripheral oedema maximum severity grade 1, patients: 32%
  Peripheral oedema maximum severity grade 2, patients: 14%
  Permanent discontinuation for peripheral oedema, patients: 1%
  SAE anaemia: 4%
  SAE bacteraemia: 2%
  SAE dehydration: 2%
  SAE gastrointestinal haemorrhage: 2%
  SAE pneumonia: 2%
  SAE small intestinal obstruction: 2%
  SAE ulcer haemorrhage: 2%
All patients, led to permanent discontinuation
  Grade 1 venous stasis retinopathy, patients: 1%
All patients, required dose modification or discontinuation
  Combined rash grade 3, patients: 3%
Cause of death disease progression in all
  Patients who died during the study or within 30 days of the last dose: 22%
During the study or within 30 days of the last dose, all patients
  Patients reporting SAEs: 30%
Laboratory values, all patients
  Increased CK, patients: 69%
Of patients with ocular events
  Ocular events recovering/resolving: 17%
  Ocular events with complete resolution: 78%
  Ocular events with stable retinal findings at treatment discontinuation: 6%
Shifted by ⩾3 grades from baseline and/or grade 4
  Clinically significant CK values, patients: 10%
